Data on one compound can be found in patent US20250145608A1, “KRAS DEGRADING COMPOUNDS COMPRISING ANNULATED 2-AMINO-3-CYANO THIOPHENES” (Boehringer Ingelheim Int'l GmbH Corp., priority 2021, published 2025).

Holding throughout (assay type): cell-based
In one test the target is T1, KRAS4B G12V (Homo sapiens, UniProt P01116, G12V).
T1 construct: HiBit; expressed in transfected cells; host or cells: GP5d cells (ECACC 95090715), stably transduced with lentivirus, CMV promoter
In words: HiBit KRAS4B mutant spectrum degradation assay, KRAS4B G12V in GP5d cells (18 h). The settings on record: KRAS mutation G12V. The source says:
(§1) The therapeutically relevant mutant KRAS constructs (WT, G12C, G12D, G12V, G13D) were obtained by site directed mutagenesis using a KRAS4B WT cDNA construct as a template. GP5d cells (ECACC Cat. No. 95090715) were transduced with lentiviral vectors expressing mutant KRAS4B cDNA under control of a CMV promoter. Stably transduced cells were selected using a neomycin selectable marker encoded on the construct.
(§2) To assess PROTAC-mediated degradation of various KRAS mutants, GP5d cells stably transduced with KRAS4B constructs as described above were seeded at 25000 cells per well in 100 μL Dulbecco's Modified Eagle medium (Sigma cat. no. D6429) supplemented with 10% fetal calf serum into white bottom opaque 96 well plates (Perkin Elmer cat no. 5680). Plates were incubated at 37° C., 5% CO2 in a humidified incubator over night to allow the cells to adhere. […] Plates were further incubated at 37° C. for 18 hours. Following incubation, 100 μL per well Promega Nano-Glo HiBit lytic detection reagent mix (Promega Nano-Glo HiBit Lytic Detection System #N3050), prepared according to the manufacturer's instructions in the kit, were added. To allow for adequate cell lysis, plates were incubated on an orbital shaker for 15 min and further incubated 30 min at room temperature. Upon completion of cell lysis, luminescence was measured using an Envision plate reader using the Ultrasensitive Luminescence Protocol for 96 well plates. Luminescence levels were normalized by the values obtained with DMSO-treated samples and plotted as percent of DMSO control. DC50 values were computed using a four parametric logistic model and are reported in nM in Table 65 for representative example (Ex.) compounds of the invention. Dmax values represent the maximal extent of degradation observed and is stated as percent of control (% Ctrl.) treatments in Table 66 for representative example (Ex.) compounds of the invention.
Background: With HiBiT, luminescence reflects the tagged protein that the partner subunit can reach.

The test system of another test is GP2D cells. Put plainly: GP2D proliferation assay (120 h) (colorectal cancer, G12D). As to the method:
GP2D Proliferation Assay (120 h) (Colorectal Cancer, G12D)
GP2D cells (ATCC No. CRL-5807) are dispensed into white 384-well plates, flat and white bottom (Perkin Elmer, 6007680) at a density of 500 cells per well in 40 μl DMEM (Sigma, D6429)+1× GlutaMAX (Gibco, 35050038)+10% FCS (fetal calf serum). […] Compounds (10 mM stock in DMSO) are added at logarithmic dose series using the HP Digital Dispenser D300 (Tecan), including DMSO controls and normalizing for added DMSO. For the TO time point measurement, untreated cells are analyzed at the time of compound addition. Plates are incubated for 120 h, and cell viability is measured using CellTiter-Glo luminescent cell viability reagent (Promega product code G7570). Viability (stated as percent of control) is defined as relative luminescence units RLU of each well divided by the RLU of cells in DMSO controls. IC50 values are determined from viability measurements by non-linear regression using a four parameter model.

The next test concerns the target T2, KRAS4B G12D (Homo sapiens, UniProt P01116, G12D).
T2 construct: HiBit; expressed in transfected cells; host or cells: GP5d cells (ECACC 95090715), stably transduced with lentivirus, CMV promoter
Put plainly: HiBit KRAS4B mutant spectrum degradation assay, KRAS4B G12D in GP5d cells (18 h). As to conditions: KRAS mutation G12D.
Text: as §1, §2

The subject of a further test is AsPC-1 cells. In words: AsPC-1 CTG proliferation assay (120 h) (pancreatic cancer, G12D). As to conditions: Homo sapiens, ASPC1, AsPC-1 proliferation. The procedure:
AsPC-1 CTG Proliferation Assay (120 h) (Pancreatic Cancer, G12D)
The CTG assay is designed to measure quantitatively the proliferation of AsPC-1 cells (ATCC […]), using the CellTiter Glow Assay Kit (Promega G7571). Cells are grown in RPMI medium (ATCC) supplemented with Fetal Calf Serum (Life Technologies, Gibco BRL, Cat. No. 10270-106). On “day 0” 2000 AsPC-1 cells are seeded in 60 μL RPMI ATCC+10% FCS+ Penstrep in a 384-well plate, flat and clear bottom (Greiner, PNr. 781091). Cells are then incubated in the plates at 37° C. in a CO2 incubator overnight. On day 1, compounds (10 mM stock in DMSO) are added with the ECHO acoustic liquid handler system (Beckman Coulter), including DMSO controls. Plates are incubated for 120 h, and cell viability is measured using CellTiter-Glo luminescent cell viability reagent (Promega product code G7570). Viability (stated as percent of control) is defined as relative luminescence units RLU of each well divided by the RLU of cells in DMSO controls. IC50 values are determined from viability measurements by non-linear regression using a four-parameter model.

The next test has as its system SW620 cells. In words: SW620 cell proliferation assay (colorectal cancer, G12V), 5 days. The settings on record: Homo sapiens, SW-620, 120 h. An outline of the steps:
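SW620 cells (2000/well, DMEM with 10% FCS) exposed to a logarithmic compound dilution series for 5 days. Viability by CellTiter-Glo luminescence as percent of DMSO control; IC50 from a four-parameter logistic fit.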

The subject of the next test is A375 cells. In words: A375 CTG proliferation assay (120 h) (melanoma, wt, B-Raf mutant, negative control). The settings on record: Homo sapiens, A-375, negative control cell line. As to the method: A375 CTG Proliferation Assay (120 h) (Melanoma, Wt, B-Raf Mutant, Negative Control)
A375 cells (ATCC CRL-1619) are dispensed into 384-well plates, flat and clear bottom (Greiner, PNr. 781091) at a density of 300 cells per well in 60 μL DMEM (Sigma D6429)+10% Fetal Calf Serum (HyClone, PNr.: SH30084.03) and incubated at 37° C. in a CO2 incubator overnight. The next day, compounds (10 mM stock in DMSO) are added at logarithmic dose series using the HP Digital Dispenser D300 (Tecan), including DMSO controls. Plates are incubated for 120 h, and cell viability is measured using CellTiter-Glo luminescent cell viability reagent (Promega product code G7570). Viability (stated as percent of control) is defined as relative luminescence units RLU of each well divided by the RLU of cells in DMSO controls. IC50 values are determined from viability measurements by non-linear regression using a four-parameter model.

T1 sequence (P01116 1-188 isoform P01116-2 G12V): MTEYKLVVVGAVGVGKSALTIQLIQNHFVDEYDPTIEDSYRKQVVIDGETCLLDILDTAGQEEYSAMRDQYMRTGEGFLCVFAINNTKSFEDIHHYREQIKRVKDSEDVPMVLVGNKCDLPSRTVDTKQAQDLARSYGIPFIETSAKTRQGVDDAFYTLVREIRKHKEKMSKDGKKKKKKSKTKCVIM
T2 sequence (P01116 1-188 isoform P01116-2 G12D): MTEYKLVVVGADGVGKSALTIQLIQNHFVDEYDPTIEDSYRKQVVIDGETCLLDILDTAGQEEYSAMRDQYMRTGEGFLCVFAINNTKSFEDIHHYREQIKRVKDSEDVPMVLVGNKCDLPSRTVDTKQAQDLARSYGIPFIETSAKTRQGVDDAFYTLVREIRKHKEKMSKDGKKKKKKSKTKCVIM

By DC50 is commonly meant the concentration giving 50% degradation. As usually defined, the IC50 is the concentration that inhibits the measured activity by half. A high value points to weaker potency. For the compound `Cc1ncsc1-c1ccc([C@H](CO)NC(=O)[C@@H]2C[C@@H](O)CN2C(=O)[C@H](C(C)C)n2cc(OC(C)CCCN3CCCN(c4nccc(-c5noc([C@@]6(C)CCCc7sc(N)c(C#N)c76)n5)n4)[C@@H](C)C3)nn2)cc1` (some centres unmarked) [I-31], the DC50 was 8.7 nM on KRAS4B G12V and 3.3 nM at KRAS4B G12D. Besides, the “Dmax at 18 h” value is given as 89.2 % Ctrl on KRAS4B G12V and 95.8 % Ctrl on KRAS4B G12D. Besides, the IC50 with GP2D cells is 26.1 nM; in the test with AsPC-1 cells, 183 nM; in the test on SW620 cells it was 62.1 nM; in the test with A375 cells, at least 3000 nM.
